Where two headings read alike, the source gives them in different places.
What was measured:
[1] = tested on: monoarthritic rat model of chronic pain induced by complete Freund's adjuvant (CFA); experiment: Antiallodynic effect (von Frey mechanical allodynia) in the monoarthritic rat model of chronic pain induced by CFA; assay type: in vivo; settings: for ED50: Rattus norvegicus, po, read-out: ED50 (compound alone); for ED50 (as restated in the formulation example): compound alone, quoted in the 20 mg formulation example; for Interaction with GBP on the antiallodynic effect (ED50mix compared with ED50add or ED50 alone): oral co-administration with GBP at fixed ratios
Procedure: This procedure involves the determination of the total amount in the mixture that is required to produce a specified synergistic antiallodynic effect at the 50% dose level (ED50mix) and the corresponding total amount that would be expected under simple additivity (ED50add). Where it is established that ED50mix<ED50add for a specific fixed ratio, then the composition has a synergistic antiallodynic effect. Both the quantities ED50mix and ED50add are random variables. ED50mix was determined from the dose-response curve for a specific fixed ratio of the components; ED50add was calculated from the ED50 values for the individual drugs.
Procedure for Testing the Antiallodynic Effect of the Composition of the Invention
Adult male. Wistar rats (body weight 175-200 g, Harlan-Nossan, Italy) were housed in separate cages with free access to water and standard rat chow at a constant temperature (22±0.5° C.) and relative humidity (60-70%), with a 6.00 am to 6.00 pm light-dark period.
The inflammation was induced in rats by an intra-plantar injection of complete Freund's adjuvant (CFA, Sigma-100 μl) into left hind paw containing heat-killed and dried Mycobacterium tuberculosis in a mixture of paraffin oil and mannide monooleate as emulsifying agent. A group of control animal were injected with 100 μl of mineral oil, the incomplete Freund's adjuvant (IFA, Sigma).
Each animal was allowed to develop the arthritis over an 8-9 day period of before testing.
Rats were placed in individual plastic boxes on a mesh metal floor and allowed to acclimatize for about 30 min. A series of calibrated von Frey hair with logarithmically incremental stiffness (from 2.83 to 5.88×Log10 of the bending force, g) were applied to the paw with the up-down method. Each hair was presented perpendicularly against the paw, with sufficient force to cause slight bending, and held approximately 2-3 sec. The filament was recorded when a positive response was noted (paw withdrawn, licking or shaking).
The antiallodynic effect was expressed as % MPE (Maximal Possible Effect) at 2 h post-dosing.
The rats were all dosed orally with various doses of an α-aminoamide alone, GBP alone, combined doses of an α-aminoamide and GBP or vehicle. The dosing volume was 2 ml/kg. The dosing materials were all prepared in the vehicle, (distilled water); drug weights were calculated as the free base.
Data are presented as mean of 4/6 animals per group/dose.
The ED50 was defined as the dose producing 50% reversal of mechanical hyperalgesia at 2 h after treatment. An experimental ED50 and 95% confidence intervals (CI) were calculated for each compound alone from the linear regressions fitting the experimental data according to the equation y=a+bx.
The different α-aminoamides were then combined with GBP at different ratios in relation to their respective ED50 previously calculated (not limiting examples of the ratios are 1:1; 1:3; 1:9 and respectively 1:1, 3:1 and 9:1 ratios) for the evaluation of the synergic effect.
Multiple (typically 4) doses of each selected ratio were then studied orally for evaluating the synergic effect of the combination.
Each rat received only one treatment.

[2] = Rat Rotarod test (motor impairment and ataxia); settings: in vivo, po, p.o. at 2 hours, dose causing 50% of the animals to fall from the roller, read-out: TD50 (compound alone)
Procedure: The Rotarod test is an established method used as predictive of CNS-related side effects in humans, and in particular motor impairment and ataxia.
The different α-aminoamides were then combined with GBP at different ratios in relation to their respective TD50 previously calculated (a non limiting example of the ratios is the 1:1 ratio) for the evaluation of the possible synergic effect. Data are presented as mean of 8/10 animals per group/dose.
The test was performed 120 min after drug administration.

[3] = 2 h after single administration, dose producing 50% reversal of mechanical hyperalgesia, CFA rats

## NC(=O)NN=Cc1ccc(Oc2ccc(F)cc2)cc1 [4-(4′-fluoro-phenoxy)benzaldehyde semicarbazone, reference compound]
[1]; [3]
  ED50: 14.5 mg/kg

## NCC1(CC(=O)O)CCCCC1 [GBP, 1-(aminomethyl)cyclohexaneacetic acid, reference compound]
[1]; 2 h
  ED50: 12.4 mg/kg
[1]
  ED50 (as restated in the formulation example): 12.40 mg
[2]
  TD50 at 120 min: 430 mg/kg

## C[C@H](NCc1ccc(OCc2ccccc2F)cc1)C(N)=O [NW-1029, (S)-(+)-2-[4-(2-fluorobenzyloxy)benzylamino]propanamide]
[1]; [3]
  ED50: 0.82 mg/kg
[1]
  ED50 (as restated in the formulation example): 0.82 mg
  Interaction with GBP on the antiallodynic effect (ED50mix compared with ED50add or ED50 alone): synergic to GBP
[2]
  TD50 at 120 min: 470 mg/kg

## CNC(=O)[C@@H](Cc1ccccc1)NCc1ccc(OCc2ccccc2)cc1 [NW-1037, (R)-(−)-2-[4-benzyloxybenzylamino]-3-phenyl-N-methylpropanamide]
[1]; [3]
  ED50: 3.45 mg/kg
[1]
  Interaction with GBP on the antiallodynic effect (ED50mix compared with ED50add or ED50 alone): synergic to GBP

## CNC(=O)[C@H](C)NCc1ccc(OCc2cccc(F)c2)cc1 [NW-1043, (S)-(+)-2-[4-(3-fluorobenzyloxy)-benzylamino]-N-methyl-propanamide]
[1]; [3]
  ED50: 7.05 mg/kg
[1]
  Interaction with GBP on the antiallodynic effect (ED50mix compared with ED50add or ED50 alone): synergic to GBP
